Our source for the IC50 and Emax values is US11564928B1, “Cannabinoid receptor type 2 (CB2) modulators and uses thereof” (Teon Therapeutics, Inc., priority 2020, dated 2023).

In assay [1] the target is T1, human CB2 receptor (Homo sapiens (Human), UniProt P34972). Nature of the assay: CB2 receptor binding assay ([3H]CP-55,940 displacement, HEK-293 membranes). The conditions noted are these: membranes of HEK-293 cells with human recombinant CB2R, [3H]CP-55,940, read-out: CB2 IC50.
Assay [2] addresses T1, human CB2 receptor. Put plainly: CB2 receptor cAMP assay (DiscoverX HitHunter cAMP XS+). The class given is cell-based. How it is done: cAMP Hunter CHO-K-1 cell lines expressing human CB2 receptor (Eurofins) were expanded from freezer stocks according to standard procedures. Cells were seeded in a total volume of 20 μL into white walled, 384-well microplates and incubated at 37° C. for the appropriate time prior to testing. cAMP modulation in agonist, inverse agonist or antagonist format was determined using the DiscoverX HitHunter cAMP XS+ assay (Eurofins). For agonist determination, cells were incubated with sample in the presence of EC80 forskolin to induce response. Media was aspirated from cells and replaced with 15 μL 2:1 HBSS/10 mM Hepes: cAMP XS+Ab reagent. Intermediate dilution of sample stocks was performed to generate 4× sample in assay buffer containing 4× EC80 forskolin. 5 μL of 4× sample was added to cells and incubated at 37° C. or room temperature for 30 or 60 minutes. Final assay vehicle concentration was 1%. For inverse agonist determination, cells were preincubated with sample in the presence of EC20 forskolin. Media was aspirated from cells and replaced with 15 μL, 2:1 HBSS/10 mM Hepes: cAMP XS+Ab reagent. Intermediate dilution of sample stocks was performed to generate 4× sample in assay buffer containing 4× EC20 forskolin. 5 μL of 4× sample was added to cells and incubated at 37° C. or room temperature for 30 or 60 minutes. Final assay vehicle concentration was 1%. For antagonist determination, cells were pre-incubated with sample followed by agonist challenge at the EC80 concentration. Media was aspirated from cells and replaced with 10 μL 1:1 HBSS/Hepes: cAMP XS+Ab reagent. 5 μL of 4× compound was added to the cells and incubated at 37° C. or room temperature for 30 minutes. 5 μL of 4× EC80 agonist was added to cells and incubated at 37° C. or room temperature for 30 or 60 minutes. EC80 forksolin was included. After appropriate compound incubation, assay signal was generated through incubation with 20 μL cAMP XS+ED/CL lysis cocktail for one hour followed by incubation with 20 μL, cAMP XS+EA reagent for three hours at room temperature. Microplates were read following signal generation with a PerkinElmer Envision instrument for chemiluminescent signal detection. Compound activity was analyzed using CBIS data analysis suite (ChemInnovation, CA). For agonist mode assay, percentage activity is calculated using the following formula: % Activity=100%×(1−(mean RLU of test sample−mean RLU of MAX control)/(mean RLU of vehicle control−mean RLU of MAX control)). For inverse agonist mode assay, percentage activity is calculated using the following formula: % Inverse Agonist Activity=100%×((mean RLU of test sample−mean RLU of EC20 forskolin)/(mean RLU of forskolin positive control−mean RLU of EC20 control)). For antagonist mode assay, percentage inhibition is calculated using the following formula: % Inhibition=100%×(mean RLU of test sample−mean RLU of EC80 control)/(mean RLU of forskolin positive control−mean RLU of EC80 control). Data are analyzed and IC50 is calculated using GraphPad Prism 5 and the model “log(inhibitor) vs. response—Variable slope”.

Another assay concerns the target human recombinant CB1R (Homo sapiens (Human), UniProt P21554). Put plainly: CB1 receptor binding assay ([3H]CP-55,940 displacement, HEK-293 membranes). The conditions noted are these: membranes of HEK-293 cells with human recombinant CB1R, [3H]CP-55,940, read-out: CB1 IC50. A digest of the protocol:
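Membranes from HEK-293 cells expressing human recombinant CB1R or CB2R were incubated with [3H]CP-55,940 and compound for 120 min at 37 °C in duplicate. The CB2R incubation buffer was 50 mM Tris-HCl, 5 mM MgCl2, 1 mM CaCl2, 0.2% BSA, pH 7.4. Bound radioactivity was filtered and counted, and IC50 was converted to Ki by Cheng–Prusoff.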

Where [3] appears, read: CHO-K1, read-out: Max Stimulation %.
Where [4] appears, read: cAMP Hunter CHO-K-1 cells expressing human CB2 receptor, read-out: cAMP IC50.
Setting [5] is: CHO-K1, cAMP Hunter CHO-K-1 cells expressing human CB2 receptor, read-out: Max Stimulation %.

Like-named read-outs stand apart in the source and are kept apart here. Bounds are passed on as bounds.

T1 sequence (P34972 whole entry): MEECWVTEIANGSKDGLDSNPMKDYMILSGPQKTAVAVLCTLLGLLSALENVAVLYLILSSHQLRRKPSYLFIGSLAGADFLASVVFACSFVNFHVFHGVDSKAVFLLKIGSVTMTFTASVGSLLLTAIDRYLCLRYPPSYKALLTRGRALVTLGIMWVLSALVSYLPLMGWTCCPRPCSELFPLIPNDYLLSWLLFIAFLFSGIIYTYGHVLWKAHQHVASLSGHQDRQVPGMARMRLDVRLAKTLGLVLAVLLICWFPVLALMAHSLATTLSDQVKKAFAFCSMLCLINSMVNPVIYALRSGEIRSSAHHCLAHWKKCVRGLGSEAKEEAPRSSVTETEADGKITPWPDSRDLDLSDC
human recombinant CB1R, sequence (P21554 whole entry): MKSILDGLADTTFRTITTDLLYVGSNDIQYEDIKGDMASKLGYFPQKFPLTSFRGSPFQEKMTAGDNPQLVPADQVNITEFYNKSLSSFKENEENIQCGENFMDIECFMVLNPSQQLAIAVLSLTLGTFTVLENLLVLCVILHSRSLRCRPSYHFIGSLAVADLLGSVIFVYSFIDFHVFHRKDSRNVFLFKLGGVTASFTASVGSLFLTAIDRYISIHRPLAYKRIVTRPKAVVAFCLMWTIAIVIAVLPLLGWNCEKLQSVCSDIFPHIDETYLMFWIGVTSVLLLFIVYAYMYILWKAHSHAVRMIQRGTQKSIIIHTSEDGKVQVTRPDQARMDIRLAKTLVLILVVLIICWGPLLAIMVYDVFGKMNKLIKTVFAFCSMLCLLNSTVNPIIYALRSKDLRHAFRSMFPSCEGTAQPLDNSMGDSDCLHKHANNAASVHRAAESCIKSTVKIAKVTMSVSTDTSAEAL

With `COc1ccc(-c2cnc3c(c2)cc(C(=O)NC2CC4(COC4)C2)c(=O)n3CCN2CCOCC2)cc1` [Compound 31, 6-(4-methoxyphenyl)-1-(2-morpholinoethyl)-2-oxo-N-(2-oxaspiro[3.3]heptan-6-yl)-1,2-dihydro-1,8-naphthyridine-3-carboxamide], the IC50 is below 100 nM on human CB2 receptor [1] (class symbols), 127 nM at human CB2 receptor [2] (setting [4]) and above 1000 nM at human recombinant CB1R (class symbols). Besides, the Emax at human CB2 receptor [2] (setting [3]) was 78%.

On to `O=C(NC1CC2(CCC2)C1)c1cc2cc(-c3ccc4c(c3)OCCO4)cnc2n(CCN2CCOCC2)c1=O` [Compound 33, 6-(2,3-dihydrobenzo[b][1,4]dioxin-6-yl)-1-(2-morpholinoethyl)-2-oxo-N-(spiro[3.3]heptan-2-yl)-1,2-dihydro-1,8-naphthyridine-3-carboxamide], for which the results for the IC50 at human CB2 receptor [1], at human CB2 receptor [2] and at human recombinant CB1R were 4 nM, 6 nM and above 10000 nM, respectively.

Regarding `N#Cc1ccc(-c2cnc3c(c2)cc(C(=O)NC2CC4(CCC4)C2)c(=O)n3CCN2CCOCC2)nc1` [Compound 36, 6-(5-cyanopyridin-2-yl)-1-(2-morpholinoethyl)-2-oxo-N-(spiro[3.3]heptan-2-yl)-1,2-dihydro-1,8-naphthyridine-3-carboxamide], the IC50 is 5 nM on human CB2 receptor [1], 13 nM at human CB2 receptor [2] and above 10000 nM at human recombinant CB1R. Further, the Emax at human CB2 receptor [2] (setting [3]) is 89%.

As for `CC(C)(NC(=O)c1cc2cc(-c3ccc(C#N)cn3)cnc2n(CCN2CCOCC2)c1=O)c1ccc(F)cc1` [Compound 40, 6-(5-cyanopyridin-2-yl)-N-(2-(4-fluorophenyl)propan-2-yl)-1-(2-morpholinoethyl)-2-oxo-1,2-dihydro-1,8-naphthyridine-3-carboxamide], the IC50 at human CB2 receptor [1] is 7 nM; against human CB2 receptor [2], 10 nM; on human recombinant CB1R, above 10000 nM. Moreover, on human CB2 receptor [2] (setting [3]), the Emax was 74%.

Turning to `N#Cc1ccc(-c2cnc3c(c2)cc(C(=O)NC2(c4ccc(F)cc4)CC2)c(=O)n3CCN2CCOCC2)nc1` [Compound 42, 6-(5-cyanopyridin-2-yl)-N-(1-(4-fluorophenyl)cyclopropyl)-1-(2-morpholinoethyl)-2-oxo-1,2-dihydro-1,8-naphthyridine-3-carboxamide], the IC50 on human CB2 receptor [1] is 23 nM; against human CB2 receptor [2] it was 14 nM; on human recombinant CB1R, above 10000 nM. The Emax at human CB2 receptor [2] (setting [3]) turned out to be 73%.

With `N#Cc1ccc(-c2cnc3c(c2)cc(C(=O)NC2CC4(CCC4)C2)c(=O)n3CCN2CCOCC2)cc1` [Compound 44, 6-(4-cyanophenyl)-1-(2-morpholinoethyl)-2-oxo-N-(spiro[3.3]heptan-2-yl)-1,2-dihydro-1,8-naphthyridine-3-carboxamide], the IC50 at human CB2 receptor [1] is 7.2 nM; at human CB2 receptor [2] (setting [4]), above 1000 nM; on human recombinant CB1R it was 6080 nM.

With `CC(NC(=O)c1cc2cc(-c3ccc(C#N)cc3)cnc2n(CCN2CCOCC2)c1=O)c1ccc(F)cc1` (stereo not shown) [Compound 45, 6-(4-cyanophenyl)-N-(1-(4-fluorophenyl)ethyl)-1-(2-morpholinoethyl)-2-oxo-1,2-dihydro-1,8-naphthyridine-3-carboxamide], the IC50 on human CB2 receptor [1] (class symbols) is below 100 nM; against human CB2 receptor [2] it was 15 nM; at human recombinant CB1R (class symbols), above 1000 nM. The Emax at human CB2 receptor [2] (setting [3]) came out at 70%.

Turning to `N#Cc1ccc(-c2cnc3c(c2)cc(C(=O)NC24CC(C2)C4)c(=O)n3CCN2CCOCC2)cc1` [Compound 46, N-(bicyclo[1.1.1]pentan-1-yl)-6-(4-cyanophenyl)-1-(2-morpholinoethyl)-2-oxo-1,2-dihydro-1,8-naphthyridine-3-carboxamide], the IC50 stood at 6 nM on human CB2 receptor [1], 14 nM at human CB2 receptor [2] and 8610 nM at human recombinant CB1R. In addition, the Emax at human CB2 receptor [2] (setting [3]) amounted to 77%.

As to `C[C@@H](NC(=O)c1cc2cc(-c3ccc(OC(F)F)cn3)cnc2n(CCN2CCOCC2)c1=O)c1ccc(F)cc1` [Compound 48, (R)-6-(5-(difluoromethoxy)pyridin-2-yl)-N-(1-(4-fluorophenyl)ethyl)-1-(2-morpholinoethyl)-2-oxo-1,2-dihydro-1,8-naphthyridine-3-carboxamide], the half-maximal inhibitory concentration (IC50) at human CB2 receptor [1] was 4.5 nM; at human CB2 receptor [2] (setting [4]) it was 0.2 nM; at human recombinant CB1R, above 10000 nM. On human CB2 receptor [2] (setting [5]), the Emax came to 66%.

With `COc1ccc(-c2cnc3c(c2)cc(C(=O)NC24CC(C2)C4)c(=O)n3CCN2CCOCC2)cc1` [Compound 50, N-(bicyclo[1.1.1]pentan-1-yl)-6-(4-methoxyphenyl)-1-(2-morpholinoethyl)-2-oxo-1,2-dihydro-1,8-naphthyridine-3-carboxamide], the IC50 on human CB2 receptor [1] worked out at 4.3 nM; on human CB2 receptor [2] it was 0.6 nM; at human recombinant CB1R, 2780 nM. Also, the Emax on human CB2 receptor [2] (setting [3]) was found to be 80%.

Regarding `CC1CCC(NC(=O)c2cc3cc(-c4ccc(OC(F)F)cc4)cnc3n(CCN3CCOCC3)c2=O)CC1` (stereo not shown) [Compound 51, 6-(4-(difluoromethoxy)phenyl)-N-(4-methylcyclohexyl)-1-(2-morpholinoethyl)-2-oxo-1,2-dihydro-1,8-naphthyridine-3-carboxamide], the IC50 was 2.1 nM at human CB2 receptor [1], 2 nM against human CB2 receptor [2] and above 10000 nM at human recombinant CB1R. Also, on human CB2 receptor [2] (setting [3]), the Emax is 108%.

As to `O=C(NC1CC2(CCC2)C1)c1cc2cc(-c3ccc(OC(F)F)cc3)cnc2n(CCN2CCOCC2)c1=O` [Compound 52, 6-(4-(difluoromethoxy)phenyl)-1-(2-morpholinoethyl)-2-oxo-N-(spiro[3.3]heptan-2-yl)-1,2-dihydro-1,8-naphthyridine-3-carboxamide], the IC50 at human CB2 receptor [1] was 10 nM; at human CB2 receptor [2] it was 1 nM; on human recombinant CB1R, 962 nM. Further, the Emax on human CB2 receptor [2] (setting [3]) came to 77%.

For `CC(NC(=O)c1cc2cc(-c3ccc(OC(F)F)cc3)cnc2n(CCN2CCOCC2)c1=O)c1ccc(F)cc1` (stereo not shown) [Compound 53, 6-(4-(difluoromethoxy)phenyl)-N-(1-(4-fluorophenyl)ethyl)-1-(2-morpholinoethyl)-2-oxo-1,2-dihydro-1,8-naphthyridine-3-carboxamide], the IC50 at human CB2 receptor [1] (class symbols) is below 100 nM; on human CB2 receptor [2] (setting [4]) it was 2 nM; on human recombinant CB1R (class symbols) it was above 1000 nM. Further, the Emax on human CB2 receptor [2] (setting [5]) was determined as 85%.

For the compound `CC(NC(=O)c1cc2cc(-c3ccc(OC(F)F)cn3)cnc2n(CCN2CCOCC2)c1=O)c1ccc(F)cc1` (stereo not shown) [Compound 55, 6-(5-(difluoromethoxy)pyridin-2-yl)-N-(1-(4-fluorophenyl)ethyl)-1-(2-morpholinoethyl)-2-oxo-1,2-dihydro-1,8-naphthyridine-3-carboxamide], the IC50 on human CB2 receptor [1] is 0.6 nM; at human CB2 receptor [2] (setting [4]) it was 11 nM; at human recombinant CB1R, 2940 nM. Moreover, the Emax on human CB2 receptor [2] (setting [5]) was 84%.

`CC1CCC(NC(=O)c2cc3cc(-c4ccc(C#N)cn4)cnc3n(CCN3CCOCC3)c2=O)CC1` (stereo not shown) [Compound 57, 6-(5-cyanopyridin-2-yl)-N-(4-methylcyclohexyl)-1-(2-morpholinoethyl)-2-oxo-1,2-dihydro-1,8-naphthyridine-3-carboxamide]: the IC50 was below 100 nM on human CB2 receptor [1] (class symbols), 8 nM on human CB2 receptor [2] and above 1000 nM at human recombinant CB1R (class symbols). In addition, at human CB2 receptor [2] (setting [3]), the Emax is 63%.
